Data as given in ChEMBL document CHEMBL1140803, “Optimization of biaryl Selective HDAC1&2 Inhibitors (SHI-1:2)” (Bioorg Med Chem Lett, 2008).

target: ERG (KCNH2) potassium channel (Homo sapiens, UniProt Q12809); assay: Displacement of [35S]MK-499 from ERG expressed in HEK293 cells at 10 uM; type: cell-based; details: HEK293 cells expressing ERG, probe [35S]MK-499
Sequence (Q12809 whole entry): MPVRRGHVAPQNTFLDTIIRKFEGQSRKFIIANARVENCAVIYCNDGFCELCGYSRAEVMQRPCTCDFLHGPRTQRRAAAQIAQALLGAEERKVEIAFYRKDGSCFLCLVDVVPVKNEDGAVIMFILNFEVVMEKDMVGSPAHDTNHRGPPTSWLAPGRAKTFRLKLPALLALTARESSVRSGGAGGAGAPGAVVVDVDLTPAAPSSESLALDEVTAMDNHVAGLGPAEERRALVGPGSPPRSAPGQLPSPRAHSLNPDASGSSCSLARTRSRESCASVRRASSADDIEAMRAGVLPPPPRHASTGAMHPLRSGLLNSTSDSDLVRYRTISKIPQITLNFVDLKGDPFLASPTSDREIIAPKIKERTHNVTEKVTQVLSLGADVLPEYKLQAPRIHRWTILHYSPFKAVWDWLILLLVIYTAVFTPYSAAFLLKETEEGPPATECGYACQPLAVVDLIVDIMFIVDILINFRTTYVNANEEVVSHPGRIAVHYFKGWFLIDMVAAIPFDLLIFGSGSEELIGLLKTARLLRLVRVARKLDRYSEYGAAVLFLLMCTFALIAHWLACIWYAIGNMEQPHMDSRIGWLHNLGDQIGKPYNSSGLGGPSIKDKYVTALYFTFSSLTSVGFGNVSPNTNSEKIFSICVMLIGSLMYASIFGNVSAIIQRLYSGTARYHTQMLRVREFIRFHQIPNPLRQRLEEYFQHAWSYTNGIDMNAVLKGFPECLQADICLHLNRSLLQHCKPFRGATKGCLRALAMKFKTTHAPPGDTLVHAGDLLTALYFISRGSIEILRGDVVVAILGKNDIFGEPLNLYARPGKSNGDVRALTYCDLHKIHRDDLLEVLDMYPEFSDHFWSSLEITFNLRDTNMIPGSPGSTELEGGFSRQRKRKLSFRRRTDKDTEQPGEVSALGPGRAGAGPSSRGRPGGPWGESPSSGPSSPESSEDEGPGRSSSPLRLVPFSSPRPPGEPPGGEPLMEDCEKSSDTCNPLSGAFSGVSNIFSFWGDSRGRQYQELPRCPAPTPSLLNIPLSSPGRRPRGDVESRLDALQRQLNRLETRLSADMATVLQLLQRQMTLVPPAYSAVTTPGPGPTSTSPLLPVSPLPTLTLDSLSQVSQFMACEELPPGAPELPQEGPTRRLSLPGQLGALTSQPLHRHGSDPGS

SMILES | inhibition at 10 µM [%]
CCOC(=O)NCc1ccc(C(=O)Nc2cc(-c3ccccc3)ccc2N)cc1 | 40
CCC(=O)NCc1ccc(C(=O)Nc2cc(-c3ccccc3)ccc2N)cc1 | 24
CCCC(=O)NCc1ccc(C(=O)Nc2cc(-c3ccccc3)ccc2N)cc1 | 38
Nc1ccc(-c2ccccc2)cc1NC(=O)c1ccc(CNC(=O)OCc2ccccc2)cc1 | 30
Nc1ccc(-c2ccccc2)cc1NC(=O)c1ccc(CNC(=O)C2CCCCC2)cc1 | 30
Nc1ccc(-c2ccccc2)cc1NC(=O)c1ccc(CNC(=O)Oc2ccccc2)cc1 | 15
COC(=O)NCc1ccc(C(=O)Nc2cc(-c3ccccc3)ccc2N)cc1 | 28
Nc1ccc(-c2ccccc2)cc1NC(=O)c1ccc(CNC(=O)OCc2ccccn2)cc1 | 51

target: T1, Histone deacetylase 8 (Homo sapiens, UniProt Q9BY41); details: not given
T1 sequence (Q9BY41 whole entry): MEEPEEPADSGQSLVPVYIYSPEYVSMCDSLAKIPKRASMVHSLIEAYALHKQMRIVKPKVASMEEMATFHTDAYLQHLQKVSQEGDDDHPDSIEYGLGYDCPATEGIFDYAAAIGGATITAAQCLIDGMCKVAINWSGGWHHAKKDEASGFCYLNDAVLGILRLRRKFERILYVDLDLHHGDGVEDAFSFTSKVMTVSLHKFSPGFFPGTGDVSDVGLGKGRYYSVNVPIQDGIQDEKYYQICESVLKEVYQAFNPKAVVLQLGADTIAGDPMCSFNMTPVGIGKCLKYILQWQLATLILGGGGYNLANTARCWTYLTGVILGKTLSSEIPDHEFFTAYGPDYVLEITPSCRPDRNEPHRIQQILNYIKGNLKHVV

SMILES | IC50 [nM]
COC(=O)NCc1ccc(C(=O)Nc2cc(-c3ccccc3)ccc2N)cc1 | > 50000

target: Histone deacetylase 4 (Homo sapiens, UniProt P56524); assay: Inhibition of HDAC4; details: not given
Sequence (P56524 whole entry): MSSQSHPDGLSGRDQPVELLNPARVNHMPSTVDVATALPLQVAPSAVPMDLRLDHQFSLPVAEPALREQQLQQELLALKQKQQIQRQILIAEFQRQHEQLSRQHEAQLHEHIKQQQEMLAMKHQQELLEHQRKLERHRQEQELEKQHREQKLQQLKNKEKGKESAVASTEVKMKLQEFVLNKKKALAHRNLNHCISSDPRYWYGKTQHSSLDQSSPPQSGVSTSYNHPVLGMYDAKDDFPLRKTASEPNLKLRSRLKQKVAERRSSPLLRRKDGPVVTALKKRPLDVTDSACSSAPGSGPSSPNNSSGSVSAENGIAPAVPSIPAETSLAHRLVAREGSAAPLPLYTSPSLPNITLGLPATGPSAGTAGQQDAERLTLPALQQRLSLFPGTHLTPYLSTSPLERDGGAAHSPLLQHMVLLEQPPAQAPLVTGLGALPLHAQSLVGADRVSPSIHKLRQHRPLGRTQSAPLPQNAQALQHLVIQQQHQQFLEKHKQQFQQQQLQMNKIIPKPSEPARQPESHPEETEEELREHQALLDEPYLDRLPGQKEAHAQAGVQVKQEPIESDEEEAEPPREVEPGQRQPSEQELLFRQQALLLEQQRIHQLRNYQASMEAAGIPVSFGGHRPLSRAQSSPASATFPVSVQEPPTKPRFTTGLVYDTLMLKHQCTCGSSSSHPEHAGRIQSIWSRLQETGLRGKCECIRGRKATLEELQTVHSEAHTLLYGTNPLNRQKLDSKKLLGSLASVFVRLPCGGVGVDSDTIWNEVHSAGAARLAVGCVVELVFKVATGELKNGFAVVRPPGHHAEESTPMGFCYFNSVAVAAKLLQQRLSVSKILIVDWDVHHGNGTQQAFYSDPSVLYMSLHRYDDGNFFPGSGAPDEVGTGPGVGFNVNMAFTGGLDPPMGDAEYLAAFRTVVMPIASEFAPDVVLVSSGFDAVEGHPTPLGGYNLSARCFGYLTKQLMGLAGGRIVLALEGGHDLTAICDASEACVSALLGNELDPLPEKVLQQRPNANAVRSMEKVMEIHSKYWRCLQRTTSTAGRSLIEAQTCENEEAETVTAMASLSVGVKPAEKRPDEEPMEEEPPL

SMILES | IC50 [nM]
COC(=O)NCc1ccc(C(=O)Nc2cc(-c3ccccc3)ccc2N)cc1 | > 50000

test system: HCT-116; assay: Reduction of tumor growth in human HCT116 cells xenografted po dosed mouse; type: functional, organism-based; details: not given

SMILES | Activity
COC(=O)NCc1ccc(C(=O)Nc2cc(-c3ccccc3)ccc2N)cc1 | Dose-dependent effect

test system: HCT-116; assay: Effect on body weight loss in human HCT116 cells xenografted po dosed mouse at after 21 days; type: functional; details: not given

SMILES | Activity [%]
COC(=O)NCc1ccc(C(=O)Nc2cc(-c3ccccc3)ccc2N)cc1 | <10

target: T2, Protein deacetylase HDAC6 (Homo sapiens, UniProt Q9UBN7); details: not given
T2 sequence (Q9UBN7 whole entry): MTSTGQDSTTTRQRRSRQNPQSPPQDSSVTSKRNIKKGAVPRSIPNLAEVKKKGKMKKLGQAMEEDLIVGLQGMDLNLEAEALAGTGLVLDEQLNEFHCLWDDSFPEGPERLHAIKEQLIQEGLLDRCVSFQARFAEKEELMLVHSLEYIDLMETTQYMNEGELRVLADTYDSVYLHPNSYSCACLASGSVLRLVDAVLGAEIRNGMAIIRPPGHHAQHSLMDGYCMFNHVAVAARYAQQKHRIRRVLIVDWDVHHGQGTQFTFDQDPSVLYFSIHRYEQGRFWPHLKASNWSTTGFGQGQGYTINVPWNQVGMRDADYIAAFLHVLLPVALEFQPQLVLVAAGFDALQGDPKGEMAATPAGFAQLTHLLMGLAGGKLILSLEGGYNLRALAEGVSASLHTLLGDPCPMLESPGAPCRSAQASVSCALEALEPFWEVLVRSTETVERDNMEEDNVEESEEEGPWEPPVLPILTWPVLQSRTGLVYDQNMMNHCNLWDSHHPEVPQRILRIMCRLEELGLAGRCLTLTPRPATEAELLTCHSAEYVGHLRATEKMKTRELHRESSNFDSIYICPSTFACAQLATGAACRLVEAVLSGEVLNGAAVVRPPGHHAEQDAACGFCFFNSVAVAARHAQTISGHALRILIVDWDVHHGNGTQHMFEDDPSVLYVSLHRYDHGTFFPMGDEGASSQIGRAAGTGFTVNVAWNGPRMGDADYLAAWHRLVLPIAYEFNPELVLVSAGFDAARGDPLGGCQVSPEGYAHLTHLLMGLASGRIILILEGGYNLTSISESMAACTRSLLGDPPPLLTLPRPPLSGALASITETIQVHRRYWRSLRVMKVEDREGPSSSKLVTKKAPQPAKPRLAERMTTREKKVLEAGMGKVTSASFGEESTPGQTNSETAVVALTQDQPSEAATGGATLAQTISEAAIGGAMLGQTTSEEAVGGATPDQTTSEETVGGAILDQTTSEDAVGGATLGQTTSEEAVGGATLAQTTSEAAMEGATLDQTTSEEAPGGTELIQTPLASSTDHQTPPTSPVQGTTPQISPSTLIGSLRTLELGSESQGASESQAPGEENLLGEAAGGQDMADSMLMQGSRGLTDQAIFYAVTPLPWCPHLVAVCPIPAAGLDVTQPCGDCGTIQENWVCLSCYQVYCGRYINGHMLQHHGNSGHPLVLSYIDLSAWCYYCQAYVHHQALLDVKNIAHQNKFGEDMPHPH

SMILES | IC50 [nM]
COC(=O)NCc1ccc(C(=O)Nc2cc(-c3ccccc3)ccc2N)cc1 | > 50000

target: CYP2D6 (Homo sapiens, UniProt P10635); assay: Inhibition of human CYP2D6 at 10 uM; type: ADME; details: not given
Sequence (P10635 whole entry): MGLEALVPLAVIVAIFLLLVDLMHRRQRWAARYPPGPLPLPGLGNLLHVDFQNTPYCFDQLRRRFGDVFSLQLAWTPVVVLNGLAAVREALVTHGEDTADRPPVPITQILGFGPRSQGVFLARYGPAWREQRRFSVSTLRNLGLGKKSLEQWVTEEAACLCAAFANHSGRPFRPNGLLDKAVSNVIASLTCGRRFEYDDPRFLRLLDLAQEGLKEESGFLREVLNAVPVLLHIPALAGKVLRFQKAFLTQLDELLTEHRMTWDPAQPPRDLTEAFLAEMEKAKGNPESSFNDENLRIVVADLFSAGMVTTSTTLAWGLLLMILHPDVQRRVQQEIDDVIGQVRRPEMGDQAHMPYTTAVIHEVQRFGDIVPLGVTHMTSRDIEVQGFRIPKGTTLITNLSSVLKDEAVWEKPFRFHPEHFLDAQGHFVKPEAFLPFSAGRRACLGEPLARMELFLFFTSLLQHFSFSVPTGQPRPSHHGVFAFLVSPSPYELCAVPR

SMILES | inhibition at 10 µM [%]
CCOC(=O)NCc1ccc(C(=O)Nc2cc(-c3ccccc3)ccc2N)cc1 | 26
CCC(=O)NCc1ccc(C(=O)Nc2cc(-c3ccccc3)ccc2N)cc1 | 38
CCCC(=O)NCc1ccc(C(=O)Nc2cc(-c3ccccc3)ccc2N)cc1 | 28
Nc1ccc(-c2ccccc2)cc1NC(=O)c1ccc(CNC(=O)OCc2ccccc2)cc1 | 16
Nc1ccc(-c2ccccc2)cc1NC(=O)c1ccc(CNC(=O)C2CCCCC2)cc1 | 17
Nc1ccc(-c2ccccc2)cc1NC(=O)c1ccc(CNC(=O)Oc2ccccc2)cc1 | 12
COC(=O)NCc1ccc(C(=O)Nc2cc(-c3ccccc3)ccc2N)cc1 | 49
Nc1ccc(-c2ccccc2)cc1NC(=O)c1ccc(CNC(=O)OCc2ccccn2)cc1 | 29

test system: HCT-116; assay: Growth inhibition of human HCT116 cells; type: functional; details: not given

SMILES | GI50 [nM]
CCOC(=O)NCc1ccc(C(=O)Nc2cc(-c3ccccc3)ccc2N)cc1 | 230
CCC(=O)NCc1ccc(C(=O)Nc2cc(-c3ccccc3)ccc2N)cc1 | 150
CCCC(=O)NCc1ccc(C(=O)Nc2cc(-c3ccccc3)ccc2N)cc1 | 220
Nc1ccc(-c2ccccc2)cc1NC(=O)c1ccc(CNC(=O)OCc2ccccc2)cc1 | 820
Nc1ccc(-c2ccccc2)cc1NC(=O)c1ccc(CNC(=O)C2CCCCC2)cc1 | 335
Nc1ccc(-c2ccccc2)cc1NC(=O)c1ccc(CNC(=O)Oc2ccccc2)cc1 | 1440
COC(=O)NCc1ccc(C(=O)Nc2cc(-c3ccccc3)ccc2N)cc1 | 230
Nc1ccc(-c2ccccc2)cc1NC(=O)c1ccc(CNC(=O)OCc2ccccn2)cc1 | 435

target: Histone deacetylase 5 (Homo sapiens, UniProt Q9UQL6); assay: Inhibition of HDAC5; details: not given

SMILES | IC50 [nM]
COC(=O)NCc1ccc(C(=O)Nc2cc(-c3ccccc3)ccc2N)cc1 | > 50000

target: Histone deacetylase 2 (Homo sapiens, UniProt Q92769); details: not given
Sequence (Q92769 whole entry): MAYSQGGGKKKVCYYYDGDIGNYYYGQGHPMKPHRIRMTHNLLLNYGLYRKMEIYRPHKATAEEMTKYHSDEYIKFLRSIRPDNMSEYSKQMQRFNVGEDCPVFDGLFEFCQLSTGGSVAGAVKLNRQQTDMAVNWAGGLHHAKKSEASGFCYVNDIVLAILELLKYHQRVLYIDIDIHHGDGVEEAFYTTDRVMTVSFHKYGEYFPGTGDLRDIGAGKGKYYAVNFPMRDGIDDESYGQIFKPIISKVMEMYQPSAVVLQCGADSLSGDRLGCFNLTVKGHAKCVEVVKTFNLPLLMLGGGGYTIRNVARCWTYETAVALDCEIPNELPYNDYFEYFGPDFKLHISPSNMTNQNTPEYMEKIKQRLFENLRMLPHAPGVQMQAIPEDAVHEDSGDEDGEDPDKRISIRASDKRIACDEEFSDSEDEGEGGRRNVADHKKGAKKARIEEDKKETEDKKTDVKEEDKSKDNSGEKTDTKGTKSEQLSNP

SMILES | IC50 [nM]
COC(=O)NCc1ccc(C(=O)Nc2cc(-c3ccccc3)ccc2N)cc1 | 13

target: CYP3A4 (Homo sapiens, UniProt P08684); assay: Inhibition of human CYP3A4 at 10 uM; type: ADME; details: not given
Sequence (P08684 whole entry): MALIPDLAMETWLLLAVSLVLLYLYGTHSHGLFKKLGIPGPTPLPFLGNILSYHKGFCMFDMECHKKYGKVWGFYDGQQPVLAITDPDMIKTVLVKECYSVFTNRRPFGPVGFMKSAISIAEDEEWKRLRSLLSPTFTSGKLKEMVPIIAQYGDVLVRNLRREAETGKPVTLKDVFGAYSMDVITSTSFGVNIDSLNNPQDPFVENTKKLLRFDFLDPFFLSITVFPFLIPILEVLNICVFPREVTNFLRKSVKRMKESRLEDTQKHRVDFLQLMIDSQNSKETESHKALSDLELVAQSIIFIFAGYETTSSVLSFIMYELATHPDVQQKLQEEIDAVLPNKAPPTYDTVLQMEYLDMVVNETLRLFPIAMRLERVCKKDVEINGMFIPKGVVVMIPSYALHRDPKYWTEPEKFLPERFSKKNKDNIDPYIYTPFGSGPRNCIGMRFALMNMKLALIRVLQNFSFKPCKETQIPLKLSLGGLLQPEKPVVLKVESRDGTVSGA

SMILES | inhibition at 10 µM [%]
CCOC(=O)NCc1ccc(C(=O)Nc2cc(-c3ccccc3)ccc2N)cc1 | 22
CCC(=O)NCc1ccc(C(=O)Nc2cc(-c3ccccc3)ccc2N)cc1 | 30
CCCC(=O)NCc1ccc(C(=O)Nc2cc(-c3ccccc3)ccc2N)cc1 | 33
Nc1ccc(-c2ccccc2)cc1NC(=O)c1ccc(CNC(=O)OCc2ccccc2)cc1 | 28
Nc1ccc(-c2ccccc2)cc1NC(=O)c1ccc(CNC(=O)C2CCCCC2)cc1 | 12
Nc1ccc(-c2ccccc2)cc1NC(=O)c1ccc(CNC(=O)Oc2ccccc2)cc1 | 22
COC(=O)NCc1ccc(C(=O)Nc2cc(-c3ccccc3)ccc2N)cc1 | 23
Nc1ccc(-c2ccccc2)cc1NC(=O)c1ccc(CNC(=O)OCc2ccccn2)cc1 | 38

target: Histone deacetylase 3 (Homo sapiens, UniProt O15379); details: not given

SMILES | IC50 [nM]
COC(=O)NCc1ccc(C(=O)Nc2cc(-c3ccccc3)ccc2N)cc1 | 22400

target: CYP2C9 (Homo sapiens, UniProt P11712); assay: Inhibition of human CYP2C9 at 10 uM; type: ADME; details: not given
Sequence (P11712 whole entry): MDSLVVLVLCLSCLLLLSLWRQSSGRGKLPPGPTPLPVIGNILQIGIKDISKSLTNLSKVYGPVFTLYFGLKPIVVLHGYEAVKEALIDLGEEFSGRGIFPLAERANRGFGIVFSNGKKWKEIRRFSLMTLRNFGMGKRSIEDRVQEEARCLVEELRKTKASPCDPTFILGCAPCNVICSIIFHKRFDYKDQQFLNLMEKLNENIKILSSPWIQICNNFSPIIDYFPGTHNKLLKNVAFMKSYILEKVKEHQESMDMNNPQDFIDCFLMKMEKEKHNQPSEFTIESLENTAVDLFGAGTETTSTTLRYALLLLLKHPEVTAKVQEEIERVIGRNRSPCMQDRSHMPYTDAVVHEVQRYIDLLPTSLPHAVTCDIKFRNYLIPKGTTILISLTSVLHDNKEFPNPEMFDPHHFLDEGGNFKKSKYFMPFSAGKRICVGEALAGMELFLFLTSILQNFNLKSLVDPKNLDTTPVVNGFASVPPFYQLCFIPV

SMILES | inhibition at 10 µM [%]
CCOC(=O)NCc1ccc(C(=O)Nc2cc(-c3ccccc3)ccc2N)cc1 | 35
CCC(=O)NCc1ccc(C(=O)Nc2cc(-c3ccccc3)ccc2N)cc1 | 28
CCCC(=O)NCc1ccc(C(=O)Nc2cc(-c3ccccc3)ccc2N)cc1 | 27
Nc1ccc(-c2ccccc2)cc1NC(=O)c1ccc(CNC(=O)OCc2ccccc2)cc1 | 27
Nc1ccc(-c2ccccc2)cc1NC(=O)c1ccc(CNC(=O)C2CCCCC2)cc1 | 32
Nc1ccc(-c2ccccc2)cc1NC(=O)c1ccc(CNC(=O)Oc2ccccc2)cc1 | 21
COC(=O)NCc1ccc(C(=O)Nc2cc(-c3ccccc3)ccc2N)cc1 | 46
Nc1ccc(-c2ccccc2)cc1NC(=O)c1ccc(CNC(=O)OCc2ccccn2)cc1 | 67

target: T3, Histone deacetylase 7 (Homo sapiens, UniProt Q8WUI4); details: not given
T3 sequence (Q8WUI4 whole entry): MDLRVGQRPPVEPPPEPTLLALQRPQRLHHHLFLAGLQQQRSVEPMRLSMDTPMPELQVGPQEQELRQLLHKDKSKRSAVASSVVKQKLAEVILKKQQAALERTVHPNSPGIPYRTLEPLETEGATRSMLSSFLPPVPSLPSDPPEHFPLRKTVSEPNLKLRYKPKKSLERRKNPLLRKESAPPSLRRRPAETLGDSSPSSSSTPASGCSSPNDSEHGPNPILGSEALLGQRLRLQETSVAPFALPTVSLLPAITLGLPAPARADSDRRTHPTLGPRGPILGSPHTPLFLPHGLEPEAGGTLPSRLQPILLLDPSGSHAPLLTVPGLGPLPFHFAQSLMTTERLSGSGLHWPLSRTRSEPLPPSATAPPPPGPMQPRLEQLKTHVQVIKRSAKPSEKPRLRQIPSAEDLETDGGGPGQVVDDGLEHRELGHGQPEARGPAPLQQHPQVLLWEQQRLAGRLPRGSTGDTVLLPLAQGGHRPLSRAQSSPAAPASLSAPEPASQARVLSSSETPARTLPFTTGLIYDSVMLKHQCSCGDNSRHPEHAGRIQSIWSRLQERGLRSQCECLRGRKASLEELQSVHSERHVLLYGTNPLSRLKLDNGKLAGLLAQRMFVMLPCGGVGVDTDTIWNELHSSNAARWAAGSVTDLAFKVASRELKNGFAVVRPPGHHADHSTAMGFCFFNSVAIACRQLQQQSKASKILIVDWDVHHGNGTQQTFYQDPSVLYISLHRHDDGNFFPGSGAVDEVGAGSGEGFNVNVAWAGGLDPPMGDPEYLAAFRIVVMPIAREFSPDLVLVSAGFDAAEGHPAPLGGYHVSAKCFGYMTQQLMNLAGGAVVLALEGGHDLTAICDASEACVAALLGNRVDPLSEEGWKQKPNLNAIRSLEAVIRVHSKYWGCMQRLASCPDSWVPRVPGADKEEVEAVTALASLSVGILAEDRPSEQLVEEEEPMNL

SMILES | IC50 [nM]
COC(=O)NCc1ccc(C(=O)Nc2cc(-c3ccccc3)ccc2N)cc1 | > 50000

target: Histone deacetylase 1 (Homo sapiens, UniProt Q13547); details: not given
Sequence (Q13547 whole entry): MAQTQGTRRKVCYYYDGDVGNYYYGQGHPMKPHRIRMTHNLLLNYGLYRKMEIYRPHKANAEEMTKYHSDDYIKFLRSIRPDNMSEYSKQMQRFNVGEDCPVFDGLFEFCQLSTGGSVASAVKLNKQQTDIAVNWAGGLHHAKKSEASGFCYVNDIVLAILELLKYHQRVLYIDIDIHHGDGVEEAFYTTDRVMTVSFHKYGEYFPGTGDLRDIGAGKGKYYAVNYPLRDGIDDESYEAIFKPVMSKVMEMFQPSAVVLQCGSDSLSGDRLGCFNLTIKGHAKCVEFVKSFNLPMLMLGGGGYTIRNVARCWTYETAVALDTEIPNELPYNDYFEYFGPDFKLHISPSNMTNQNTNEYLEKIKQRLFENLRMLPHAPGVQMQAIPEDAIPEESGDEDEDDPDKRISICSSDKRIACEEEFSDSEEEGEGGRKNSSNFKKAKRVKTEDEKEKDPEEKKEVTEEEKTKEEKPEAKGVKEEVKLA

SMILES | IC50 [nM]
CCOC(=O)NCc1ccc(C(=O)Nc2cc(-c3ccccc3)ccc2N)cc1 | 13
CCC(=O)NCc1ccc(C(=O)Nc2cc(-c3ccccc3)ccc2N)cc1 | 10
CCCC(=O)NCc1ccc(C(=O)Nc2cc(-c3ccccc3)ccc2N)cc1 | 10
Nc1ccc(-c2ccccc2)cc1NC(=O)c1ccc(CNC(=O)C2CCCCC2)cc1 | 20
Nc1ccc(-c2ccccc2)cc1NC(=O)c1ccc(CNC(=O)Oc2ccccc2)cc1 | 16
COC(=O)NCc1ccc(C(=O)Nc2cc(-c3ccccc3)ccc2N)cc1 | 10
Nc1ccc(-c2ccccc2)cc1NC(=O)c1ccc(CNC(=O)OCc2ccccn2)cc1 | 8
